The text below walks through data of EPA's ToxValDB 9.5.

The subject of this data set is Rattus norvegicus. The following applies: oral.
The mark [1] stands for this setting: short-term, duration: 28 days, gavage, M, Sprague-Dawley, Clinical Observation: Yellow-orange urine SalivationSpontaneous locomotion decrease, Respiratory rate decrease, Soft stool + Body Weight ….
Setting [2] is: short-term, duration: 28 days, gavage, F, Sprague-Dawley.
Setting [3] is: short-term, duration: 28 days, gavage, M, Sprague-Dawley.
Setting [4] is: chronic, duration: 91 days, gavage, M/F, Wistar, Blood Chemistry: Ca increase, TP increase, Glob increase, TG increase, Glu decrease + Absolute Organ Weight: Liver increase, Kidney increase….
The mark [5] stands for this setting: short-term, duration: 28 days, gavage, F, Sprague-Dawley, Clinical Observation: Salivation1000 (transient) + Body Weight Changes: Weight gain decrease + Hematology: Hgb decrease, Hct decrease, RBC ….
[6] abbreviates: short-term, duration: 28 days, gavage, M, Sprague-Dawley, Clinical Observation: Salivation1000 (transient) + Body Weight Changes: Weight gain decrease + Hematology: Hgb decrease, Hct decrease, RBC ….
The mark [7] stands for this setting: short-term, duration: 28 days, gavage, M/F, Clinical Observation: Salivation Soft stool Mucous stool + Body Weight Changes: Weight gain decrease + Food Consumption: decrease + ….

For the compound `COc1ccccc1[N+](=O)[O-]` [1-Methoxy-2-nitrobenzene], the NOAEL under setting [1] is 80 mg/kg-day. Besides, the NOEL is 80 mg/kg-day under setting [1] and less than 19.2 mg/kg-day (subchronic, duration: 13 weeks, diet, M/F, Fischer 344, Deaths + Body Weight Changes: decrease + Food Consumption: decrease + Hematology: Ret increase, Hct decrease, Hgb decrease, RBC decrease, …).

As to `O=C(Nc1ccccc1)c1cc2ccccc2cc1O` [3-Hydroxy-2-naphthanilide], the NOAEL under setting [2] is 1000 mg/kg-day and the NOAEL under setting [3] stood at 1000 mg/kg-day. For the same compound, the NOEL by setting is: under setting [2], 1000 mg/kg-day; under setting [3], 1000 mg/kg-day; (subchronic, gavage, Sprague-Dawley) 1000 mg/kg-day.

In the case of `Cc1cc(-c2ccc(N)c(C)c2)ccc1N.Cl.Cl` [3,3'-Dimethylbenzidine dihydrochloride], the NOEL (subchronic, duration: 13 weeks, drinking water, M/F, Fischer 344, Deaths + Clinical Observation: Crusty red exudate on the noses Thinness Stains on the fur + Body Weight Changes: decrease + Water …) is less than 45.6 mg/kg-day.

With `CC(=O)Nc1ccc(O)cc1` [Acetaminophen], the NOEL runs as follows: (short-term, duration: 19 days, gavage, F, Wistar, Deaths + Clinical Observation: Emaciation(dead animals) Hypothermia(dead animals) Bradypnea(dead animals) Locomotor activity decrease(dead …) 20 mg/kg-day; (short-term, duration: 19 days, gavage, M, Wistar, Deaths + Clinical Observation: Emaciation(dead animals) Hypothermia(dead animals) Bradypnea(dead animals) Locomotor activity decrease(dead …) 20 mg/kg-day; (subchronic, duration: 13 weeks, diet, M/F, Fischer 344, Deaths + Clinical Observation: Dark yellow urine + Body Weight Changes: decrease + Absolute Organ Weight: Right testis decrease, Thymus …) less than 76.8 mg/kg-day.

Take `CNC[C@H](O)c1cccc(O)c1.Cl` [(-)-Phenylephrine hydrochloride]: for the setting “subchronic, duration: 12 weeks, diet, M/F, Fischer 344, Deaths + Clinical Observation: Hyperexcitable + Body Weight Changes: decrease + Histopathology: Eye-Chronic keratitis Testis-Atrophy Seminal…”, the NOEL stood at 240 mg/kg-day.

Turning to `O=[N+]([O-])c1cc(Cl)c(/N=N/c2ccc3c(c2)c2ccccc2n3CCO)c(Cl)c1`, for the setting “short-term, duration: 28 days, gavage, M/F, Body Weight Changes: Body weight gain decrease + Food Consumption: decrease + Water Consumption: increase + Urinalysis: Urine volume …”, the NOEL worked out at 140 mg/kg-day.

Where the note is “subchronic, gavage, M, Sprague-Dawley, Blood Chemistry: TP decrease, BUN increase”, `CC(Cl)(Cl)C(=O)[O-].[Na+]` [Dalapon-sodium] showed an NOEL of 300 mg/kg-day.

In the case of `N#CSCSC#N` [Methylene bis(thiocyanate)], the NOEL runs as follows: (subchronic, gavage, F, Fischer 344, Deaths + Clinical Observation: Abnormal respiratory sounds Reddish tear Hunched posture Dyspnea + Hematology: Hct decrease, Hgb decrease, …) 2 mg/kg-day; (subchronic, gavage, M, Fischer 344, Deaths + Clinical Observation: Abnormal respiratory sounds Reddish tear Hunched posture Dyspnea + Hematology: Hct decrease, Hgb decrease, …) 1 mg/kg-day.

For `O=C([O-])C1=Cc2sc(Cn3ccnc3)cc2CC1.[Na+]` [RS 5186], the NOAEL (subchronic, duration: 90 days, gavage, M/F, CD, Clinical Observation: Salivation Chylous or dark red-brown urine + Absolute Organ Weight: Liver increase + Relative Organ Weight: Liver …) turned out to be 30 mg/kg-day.

Take `CC(C)(O)C1CCCCC1` [Cyclohexanemethanol, .alpha.,.alpha.-dimethyl-]: where the note is “short-term, duration: 28 days, gavage, M/F, Clinical Observation: Salivation + Blood Chemistry: GLUC decrease, TP increase, CRN decrease, BIL increase, T-CHO increase + Absolute Organ …”, the NOEL was less than 8 mg/kg-day.

Regarding `N#Cc1ccccc1Cl` [2-Chlorobenzonitrile], for the setting “subchronic, gavage, M, Sprague-Dawley, Urinalysis: Ketone body increase + Hematology: APTT increase + Blood Chemistry: Cho increase, PL increase, ALT increasegamma-GTP increase, …”, the NOEL was determined as 10 mg/kg-day.

With `c1ccc(P(c2ccccc2)c2ccccc2)cc1` [Triphenylphosphine], under setting [4], the NOAEL was determined as 60 mg/kg-day and the NOEL is 6 mg/kg-day.

With `C[C@@H](NCCc1ccc(O)cc1)[C@@H](O)c1ccc(O)cc1.Cl` [Ritodrine hydrochloride], where the note is “subchronic, duration: 35 days, gavage, M/F, Sprague-Dawley, Deaths + Clinical Observation: Locomotor activity decrease, Increased respiration rate Deep respiration Prone, lateral, or supine position …”, the NOEL amounted to 32 mg/kg-day.

As to `CC1(C)C(C=CC(=O)OC(C(F)(F)F)C(F)(F)F)C1C(=O)OC(C#N)c1cccc(Oc2ccccc2)c1` (centres undefined), the NOEL (short-term, duration: 28 days, gavage, M/F, Deaths + Clinical Observation: Salivation + Urinalysis: Specific gravity decrease, pH decrease + Blood Chemistry: GPT increase, BUN …) is less than 5 mg/kg-day.

`COC(CC#N)OC` [3,3-Dimethoxypropiononitrile]: the NOEL (short-term, duration: 28 days, gavage, M/F, Clinical Observation: Lethargy Salivation + Body Weight Changes: body weight gain decrease + Urinalysis: Urine volume increase, pH decrease…) is less than 15 mg/kg-day.

With `CC(=O)/C=C/C1=C(C)CCCC1(C)C` [beta-Ionone], where the note is “subchronic, duration: 90 days, diet, M/F, Wistar, Urinalysis: Ket increase, Uro increase, Transitional epithelial cell increase, Epithelial cell casts + Blood Chemistry: gamma-GTP increase, …”, the no observed adverse effect level (NOAEL) amounted to 96 mg/kg-day.

Regarding `CC(=O)C(C)=O` [2,3-Butanedione], the NOEL (subchronic, duration: 90 days, gavage, M/F, CFE, Body Weight Changes: decrease + Water Consumption: increase + Hematology: HGB decrease, HCT decrease, RET increase, WBC increase, NEUT …) is 90 mg/kg-day.

On to `CN1CCN(c2c(F)cc3c(=O)c(C(=O)O)cn(CCF)c3c2F)CC1` [Fleroxacin], for which the NOEL (chronic, duration: 91 days, gavage, M/F, Wistar, Deaths + Clinical Observation: Piloerection + Body Weight Changes: Body weight decrease, Body weight gain decrease + Food Consumption: …) was found to be 45 mg/kg-day.

As for `O=c1ccc2ccccc2o1` [Coumarin], the NOEL (subchronic, duration: 13 weeks, gavage, M/F, Fischer 344, Deaths + Body Weight Changes: decrease + Hematology: RBC increase + Blood Chemistry: Ch E decrease, Cl decrease, TP increase, Alb increase, …) is less than 19 mg/kg-day.

For the compound `CC(C)(C)OOC(C)(C)CCC(C)(C)OOC(C)(C)C` [2,5-Dimethyl-2,5-di-(tert-butylperoxy)hexane], under setting [5], the LOAEL worked out at 200 mg/kg-day, the LOEL came out at 200 mg/kg-day, the NOAEL was found to be 40 mg/kg-day and the NOEL was determined as 40 mg/kg-day. Further, under setting [6], the LOAEL amounted to 1000 mg/kg-day, the LOEL worked out at 200 mg/kg-day, the NOAEL stood at 200 mg/kg-day and the NOEL came to 40 mg/kg-day.

`CN(C)CCN(C)CCN(C)C` [1,1,4,7,7-Pentamethyldiethylenetriamine]: the NOEL (subchronic, gavage, M, Sprague-Dawley, Body Weight Changes: decrease200 + Blood Chemistry: Alb decrease, IP increase + Relative Organ Weight: Liver increase + Histopathology: "…) is 40 mg/kg-day.

Turning to `ClC1=C(Cl)[C@]2(Cl)[C@H]3[C@H]([C@H](Cl)C(Cl)[C@@H]3Cl)[C@@]1(Cl)C2(Cl)Cl` (stereo partly drawn) [trans-Nonachlor], the NOEL (subchronic, diet, M/F, Sprague-Dawley, Blood Chemistry: Pi increase, A/G decrease, Thyroxine increasetake decrease, T4 increase + Absolute Organ Weight: Liver increase + Relative …) was less than 0.48 mg/kg-day.

For the compound `C=CC(=O)OCC` [Ethyl acrylate], the no observed adverse effect level (NOAEL) (subchronic, duration: 90 days, gavage, M, Fischer 344, Necropsy: Small intestine: Reddening, duodenal mucosa Stomach: Prominent blood vessel, cardiac region) is 55 mg/kg-day.

On to `c1ccc(COc2ccc3ccccc3c2)cc1` [Benzyl 2-naphthyl ether], for which the NOEL (subchronic, gavage, M, Sprague-Dawley, Blood Chemistry: T-Bil increase + Relative Organ Weight: Liver increase + Histopathology: Kidney-Globular accumulation of eosinophilic …) was less than 100 mg/kg-day.

Where the note is “short-term, duration: 28 days, gavage, M, Sprague-Dawley, Clinical Observation: Perioral soiling Increased nasal sounds Labored respiration Soft vocalization”, `CO[Si](CCCNCCN)(OC)OC` [N-[3-(Trimethoxysilyl)propyl]ethane-1,2-diamine] yielded a no-observed-adverse-effect level (NOAEL) of 500 mg/kg-day.

In the case of `O=C(O)c1ccccc1Cl` [2-Chlorobenzoic acid], where the note is “subchronic, gavage, M, Sprague-Dawley, Clinical Observation: Salivation + Body Weight Changes: decrease + Food Consumption: decrease + Hematology: RBC decrease, Hgb decrease, RET …”, the NOEL is 40 mg/kg-day.

As for `COc1c(N2CCNC(C)C2)c(F)cc2c(=O)c(C(=O)O)cn(C3CC3)c12.O` (centres undefined), the NOAEL (chronic, duration: 182 days, gavage, M/F, Wistar, Clinical Observation: Loss of increaseper incisor + Body Weight Changes: decrease + Urinalysis: Ca increase + Hematology: SEG decrease, …) is 30 mg/kg-day.

On to `O=c1[nH]c2ccccc2n1CCCN1CCN(C(c2ccccc2)c2ccccc2)CC1` [Oxatomide], for which the NOEL (subchronic, duration: 30 days, gavage, M/F, Wistar, Deaths + Clinical Observation: Tremor HypersensitivityPiloerection + Body Weight Changes: Body weight gain decrease + Food Consumption: …) was 40 mg/kg-day.

`Cc1cccc(C)c1N` [2,6-Dimethylaniline]: the NOEL (subchronic, duration: 13 weeks, gavage, M/F, Fischer 344, Body Weight Changes: decrease + Hematology: WBC decrease, RBC decrease, Hgb decrease, Hct decrease, Lympho decrease + Blood Chemistry: K …) is 20 mg/kg-day.

On to `O=C1C(Cl)=C(Cl)C(=O)N1Cc1ccccc1` [1-benzyl-3,4-dichloro-1H-pyrrole-2,5-dione], for which the NOEL (short-term, duration: 28 days, gavage, M/F, Clinical Observation: Salivation + Body Weight Changes: Body weight gain decrease + Blood Chemistry: TG decrease, GLU decrease + Organ …) is 40 mg/kg-day.

Take `CCCCCCCCCCCCCCCCCCCCCCN(C)C` [1-Docosanamine, N,N-dimethyl-]: where the note is “subchronic, gavage, M, Sprague-Dawley, Body Weight Changes: decrease + Blood Chemistry: AST increase, ALT increase, Alb increase, A/G increase, ALP decrease + Necropsy: Mesentric …”, the NOEL turned out to be 0.5 mg/kg-day.

As for `C=C(F)C(F)(F)C(F)(F)C(F)F` [2,3,3,4,4,5,5-Heptafluoro-1-pentene], the NOEL (short-term, duration: 28 days, gavage, M/F, Deaths + Clinical Observation: Salivation Locomotor activity decrease, Whitish discoloration of tooth Bradypnea Reddening of extremity and …) stood at 8 mg/kg-day.

For the compound `C=CCOCCCCO` [4-allyloxy-1-butanol], under “short-term, duration: 28 days, gavage, M/F, Deaths + Clinical Observation: nasal discharge flatulence + Body Weight Changes: body weight gain decrease + Food Consumption: decrease + …”, the NOEL amounted to 10 mg/kg-day.

Take `C=CC(=O)OCc1c(Br)c(Br)c(Br)c(Br)c1Br` [(Pentabromophenyl)methyl acrylate]: the NOEL (short-term, duration: 28 days, gavage, M/F, Clinical Observation: Salivation increase, Hunchback position Staggering gait Lethargy Ptosis Emacation Flush in extremities + Urinalysis: S…) was less than 15 mg/kg-day.

Take `CC(C)(c1ccc(O)cc1)c1cc(C(C)(C)c2ccc(O)cc2)c(O)cc1O` [4,6-Bis[2-(4-hydroxyphenyl)propan-2-yl]benzene-1,3-diol]: under setting [7], the NOAEL turned out to be 20 mg/kg-day and the NOEL is less than 5 mg/kg-day.

As to `CC(O)C(=O)[O-].[Na+]` (racemic) [Sodium DL-lactate], where the note is “subchronic, duration: 42 days, gavage, M, CD(SD), Thyroid Hormone: T4 increase, TSH increase + Histopathology: Stomach-Hyperplasia, squamous, limiting ridge”, the NOEL was found to be 100 mg/kg-day.
